These results are taken from patent US8071600B2, “Derivatives of 4-piperazin-1-yl-4-benzo[B]thiophene suitable for the treatment of CNS disorders” (Otsuka Pharmaceutical Co., Ltd., priority 2005, dated 2011).

Data set [1] relates to serotonin (5-HT) uptake by rat brain synaptosome. Kind of data set: Serotonin (5-HT) uptake inhibitory activity by rat brain synaptosome. Conditions: test compound 300 nM, tritium labeled 5-HT 8 nM, 10 minutes uptake at 37° C. It is filed as biochemical. How it is done: Measurement of serotonin (5-HT) uptake inhibitory activity of a test compound by rat brain synaptosome
Wistar male rats were decapitated, the brain was retrieved and frontal cortex was dissected out, and it was homogenized in 0.32 M sucrose solution of a weight 20 times of the weight of the tissue using a Potter type homogenizer. The homogenate was centrifuged at 4° C., 1,000×g for 10 minutes, the obtained supernatant was further centrifuged at 4° C., 20,000×g for 20 minutes, and the pellet was suspended in an incubation buffer (20 mM Hepes buffer (pH 7.4) containing 10 mM glucose, 145 mM sodium chloride, 4.5 mM potassium chloride, 1.2 mM magnesium chloride, 1.5 mM calcium chloride), which was used as crude synaptosome fraction.
5-HT uptake reaction was performed in a volume of 200 μl using a 96-well round bottom plate and pargyline (final concentration 10 μM) and sodium ascorbate (final concentration 0.2 mg/ml) were contained in the incubation buffer upon reaction and used.
Incubation buffer (total counting), non-labeled 5-HT (final concentration 10 μM, non-specific counting) and the diluted test compound (final concentration 300 nM) were added to each well. One-tenth quantity of the final volume of the synaptosome fraction was added and after preincubated at 37° C. for 10 minutes, tritium labeled 5-HT solution (final concentration 8 nM) was added and uptake reaction was started at 37° C. The uptake time was 10 minutes and the reaction was terminated by vacuum filtration through a 96-well fiber glass filter paper plate, and after the filter paper was washed with cold normal saline, it was dried enough and Microscint0 (Perkin-Elmer) was added to the filter and remaining radioactivity on the filter was measured.
Serotonin uptake inhibitory activity (%) was calculated from the radioactivity of total counting as 100%, of non-specific counting as 0%, and of counting obtained with test compound. % of inhibition of 5-HT(%)=100−[(Count obtained with test compound−Nonspecific count (0% Uptake))/(Total count (100% Uptake)−Nonspecific count (0% Uptake))]×100 The results are shown in the next Table 314.

Another data set concerns the target T1, Dopamine D2 receptor (Rattus norvegicus, UniProt P61169).
T1 construct: from tissue; host or cells: Wistar rat brain, corpus striatum membranes
Kind of data set: Dopamine D2 receptor binding assay ([3H]-raclopride). The note with it: Dopamine D2 receptor binding test, rat corpus striatum membrane, Ki calculated from IC50 by Cheng-Prussoff formula. The gist of the method: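 Wistar male rat striatal membranes incubated with [3H]-raclopride (final 1 to 2 nM) in 50 mM Tris-HCl with NaCl, KCl, CaCl2, MgCl2, pH 7.4, 1% DMSO, 1 h at room temperature; filtration and scintillation counting. Nonspecific binding with 10 μM (+)-butaclamol; IC50 converted to Ki by Cheng-Prussoff.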

Data set [2] deals with T2, Serotonin 5-HT2A receptor (Rattus norvegicus, UniProt P14842).
T2 construct: from tissue; host or cells: Wistar rat brain, frontal cortex membranes
T2 sequence (P14842 whole entry): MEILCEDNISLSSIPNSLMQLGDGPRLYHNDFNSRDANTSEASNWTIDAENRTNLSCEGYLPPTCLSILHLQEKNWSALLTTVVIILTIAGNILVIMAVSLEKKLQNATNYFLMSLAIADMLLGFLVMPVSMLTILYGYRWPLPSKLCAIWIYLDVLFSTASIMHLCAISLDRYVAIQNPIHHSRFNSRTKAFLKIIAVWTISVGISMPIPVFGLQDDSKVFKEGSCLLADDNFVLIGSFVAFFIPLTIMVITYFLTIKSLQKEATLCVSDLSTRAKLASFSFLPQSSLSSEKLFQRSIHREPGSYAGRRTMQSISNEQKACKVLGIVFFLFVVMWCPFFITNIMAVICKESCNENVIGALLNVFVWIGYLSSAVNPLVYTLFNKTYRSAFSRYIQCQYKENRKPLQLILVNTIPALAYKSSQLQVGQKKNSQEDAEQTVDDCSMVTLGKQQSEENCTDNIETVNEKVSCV
Kind of data set: Serotonin 5-HT2A receptor binding assay ([3H]-Ketanserin). The note with it: Serotonin 5-HT2A receptor binding test, rat frontal cortex membrane, Ki calculated from IC50 by Cheng-Prussoff formula. The procedure, abridged: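 Rat frontal cortex membranes incubated with [3H]-ketanserin (final 1 to 3 nM) in 50 mM Tris-HCl pH 7.4, 1% DMSO, 37° C. for 20 minutes; bound radioactivity counted after filtration.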

Data set [3] addresses Human recombinant dopamine D2 receptor (Homo sapiens, UniProt P14416). The note with it: forskolin-stimulated D2 receptor expressing CHO cells; well without test compound = 100%. How it is done: Partial agonistic activity on dopamine D2 receptor using D2 receptor expression cells
Partial agonistic activity on dopamine D2 receptor was evaluated by quantitatively determining cyclic AMP production inhibitory effect of a test compound in dopamine D2 receptor expression cells in which adenosine 3′,5′-cyclic monophosphate (cyclic AMP) production was induced by forskolin stimulation.
Human recombinant dopamine D2 receptor expressing Chinese hamster ovary/DHFR(−) cells were cultured in a culture medium (Iscove's Modified Dulbecco's Medium (IMDM culture medium), 10% fetal bovine serum, 50 I.U./ml penicillin, 50 μg/ml streptomycin, 200 μg/ml geneticin, 0.1 mM sodium hypoxanthine, 16 μM thymidine) at 37° C. and 5% carbon dioxide condition. Cells were seeded at 10^4 cells/well on a 96-well microtiter plate coated with poly-L-lysine and grown under the same condition for 2 days. Each well was washed with 100 μl of a culture medium (IMDM culture medium, 0.1 mM sodium hypoxanthine, 16 μM thymidine).

pKi: −log10 of the molar value.

T1 sequence (P61169 whole entry): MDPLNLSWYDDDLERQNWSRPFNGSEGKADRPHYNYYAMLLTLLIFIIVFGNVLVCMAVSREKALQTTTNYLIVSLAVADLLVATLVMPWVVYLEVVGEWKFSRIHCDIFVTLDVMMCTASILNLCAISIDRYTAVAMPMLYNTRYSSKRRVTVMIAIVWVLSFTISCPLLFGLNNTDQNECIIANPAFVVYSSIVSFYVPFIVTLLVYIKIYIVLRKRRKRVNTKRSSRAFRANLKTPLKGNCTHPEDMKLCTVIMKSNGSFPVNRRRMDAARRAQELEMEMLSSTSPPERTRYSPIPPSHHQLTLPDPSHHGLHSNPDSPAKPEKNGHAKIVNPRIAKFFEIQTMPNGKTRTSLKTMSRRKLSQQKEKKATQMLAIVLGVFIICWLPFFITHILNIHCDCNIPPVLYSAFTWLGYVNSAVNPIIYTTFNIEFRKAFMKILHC
Sequence of Human recombinant dopamine D2 receptor (P14416 whole entry): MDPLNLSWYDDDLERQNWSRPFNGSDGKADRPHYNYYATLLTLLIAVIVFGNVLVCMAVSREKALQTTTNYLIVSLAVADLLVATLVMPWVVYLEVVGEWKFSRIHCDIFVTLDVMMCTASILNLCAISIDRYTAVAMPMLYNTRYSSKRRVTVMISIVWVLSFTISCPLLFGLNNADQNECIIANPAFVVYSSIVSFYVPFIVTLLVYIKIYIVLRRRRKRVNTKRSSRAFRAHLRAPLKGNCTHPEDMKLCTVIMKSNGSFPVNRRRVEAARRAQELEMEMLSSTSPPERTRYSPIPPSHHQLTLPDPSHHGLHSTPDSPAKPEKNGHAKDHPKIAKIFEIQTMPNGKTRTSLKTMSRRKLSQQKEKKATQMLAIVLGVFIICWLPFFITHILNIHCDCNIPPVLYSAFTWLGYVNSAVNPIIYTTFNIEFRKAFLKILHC

As a reminder, the pKi is the Ki on a negative log10 scale, so that one unit is a factor of ten. The melting point is the temperature of the solid-liquid transition. Take `CNc1cc(C)c(OCCCN2CCN(c3cccc4sccc34)CC2)c(OC)c1.Cl` [Example 11, N-methyl-4-[3-(4-benzo[b]thiophen-4-yl-piperazin-1-yl)propoxy]-3-methoxy-5-methylaniline hydrochloride]: the melting point is 239.5 to 244 °C (dec.). The “Serotonin uptake inhibitory ratio (%) (300 nM)” value in data set [1] is reported as 95.2%. Moreover, the pKi on Dopamine D2 receptor was 9.70. The pKi in data set [2] was 8.36.
In the case of `COc1cc(N(C)C)cc(C)c1OCCCN1CCN(c2cccc3sccc23)CC1.Cl` [Example 15, 4-[3-(4-benzo[b]thiophen-4-yl-piperazin-1-yl)propoxy]-N,N-dimethyl-3-methoxy-5-methylaniline hydrochloride], the melting point is 234.5 to 240.5 °C (dec.). In data set [1], the “Serotonin uptake inhibitory ratio (%) (300 nM)” value was determined as 95.3%. For the same compound, the pKi on Dopamine D2 receptor is 9.40. Also, the pKi in data set [2] was 8.23.
In turn, `CCNC(=O)Cc1ccc(OCCCN2CCN(c3cccc4sccc34)CC2)cc1` [Example 323] registered a melting point of 112.5 to 113.5 °C. The pKi on Dopamine D2 receptor is 8.82. For the same compound, the pKi in data set [2] was 9.15.
Compound `NC(=O)Cc1ccc(OCCCN2CCN(c3cccc4sccc34)CC2)cc1` [Example 340] showed a melting point of 149.5 to 150.5 °C. Moreover, the pKi at Dopamine D2 receptor is 8.72. Moreover, the pKi in data set [2] is 8.32.
Turning to `NS(=O)(=O)c1ccc(OCCCN2CCN(c3cccc4sccc34)CC2)cc1` [Example 394], the melting point is 199 to 203 °C. In addition, the pKi at Dopamine D2 receptor was 8.42. Further, in data set [2], the pKi is 8.33.
In the case of `COc1cc(C(=O)NCC(OC)OC)cc(C)c1OCCCN1CCN(c2cccc3sccc23)CC1` [Example 802], in data set [1], the “Serotonin uptake inhibitory ratio (%) (300 nM)” value came out at 96.6%. Further, the figures for the negative-log Ki (pKi) (on Dopamine D2 receptor; in data set [2]) were 9.22 and 8.85, respectively.
As for `COc1cc(NC(=O)CNC(=O)OC(C)(C)C)cc(C)c1OCCCN1CCN(c2cccc3sccc23)CC1` [Example 1059], the melting point was in the range of 140.5 to 142.5 °C. Also, the “Serotonin uptake inhibitory ratio (%) (300 nM)” value in data set [1] is listed as 97.2%. Besides, at Dopamine D2 receptor, the pKi was 9.40. For the same compound, the pKi in data set [2] is 8.42.
For the compound `COc1cc(NC(=O)CN)cc(C)c1OCCCN1CCN(c2cccc3sccc23)CC1` [Example 1060], the “Serotonin uptake inhibitory ratio (%) (300 nM)” value in data set [1] stood at 97.5%. Besides, the pKi on Dopamine D2 receptor is 10.00; in data set [2] it was 8.92.
`COc1cc(NC(=O)CNC(C)=O)cc(C)c1OCCCN1CCN(c2cccc3sccc23)CC1` [Example 1061] registered a melting point of 167.5 to 170.5 °C. The “Serotonin uptake inhibitory ratio (%) (300 nM)” value in data set [1] worked out at 97.5%. Moreover, the pKi at Dopamine D2 receptor was 10.00. For the same compound, in data set [2], the pKi was 8.92.
Take `COc1cc(N2CCOC2=O)cc(CO)c1OCCCN1CCN(c2cccc3sccc23)CC1` [Example 1071]: the “Serotonin uptake inhibitory ratio (%) (300 nM)” value in data set [1] came to 94.4%. For the same compound, the pKi on Dopamine D2 receptor was 10.00; in data set [2] it was 8.89.
For `COc1cc(N2CCCC2)cc(C)c1OCCCN1CCN(c2cccc3sccc23)CC1` [Example 1076] the same measures were 87.8%, 8.92 and 7.91.
In the case of `COc1cc(N2CCN(C(C)=O)CC2=O)cc(C)c1OCCCN1CCN(c2cccc3sccc23)CC1` [Example 1079], the “Serotonin uptake inhibitory ratio (%) (300 nM)” value in data set [1] came out at 82.3%. Also, the values for the negative logarithm of the Ki (pKi) (on Dopamine D2 receptor; in data set [2]) were 9.40 and 8.55, respectively.
Taken in the same sequence, the figures for `COC(=O)N1CCN(c2cc(C)c(OCCCN3CCN(c4cccc5sccc45)CC3)c(OC)c2)C(=O)C1` [Example 1080] were 95.6%, 9.22 and 8.47.
Taken in the same sequence, the figures for `COc1cc(N2CCN(C(C)=O)CC2)cc(C)c1OCCCN1CCN(c2cccc3sccc23)CC1` [Example 1083] were 96.3%, 9.52 and 8.82.
Taken in the same sequence, the figures for `COC(=O)N1CCN(c2cc(C=O)c(OCCCN3CCN(c4cccc5sccc45)CC3)c(OC)c2)CC1` [Example 1086] were 98.6%, 9.00 and 8.24.
The compound `COC(=O)N1CCN(c2cc(CO)c(OCCCN3CCN(c4cccc5sccc45)CC3)c(OC)c2)CC1` [Example 1087] came in with a melting point of 128 to 130 °C. The “Serotonin uptake inhibitory ratio (%) (300 nM)” value in data set [1] came to 97.1%. Besides, the pKi on Dopamine D2 receptor was 9.52. Also, in data set [2], the pKi was 8.59.
With `COc1cc(N2CCCCC2)cc(C)c1OCCCN1CCN(c2cccc3sccc23)CC1` [Example 1089], in data set [1], the “Serotonin uptake inhibitory ratio (%) (300 nM)” value was determined as 85.0%. The pKi is 9.00 on Dopamine D2 receptor and 7.86 in data set [2].
For `CC(=O)Nc1cc(OCCCN2CCN(c3cccc4sccc34)CC2)n(C)n1` [Example 1106] the same measures were 69.9%, 9.00 and 8.15.
Take `CN(C)C(=O)N1CCC(OCCCN2CCN(c3cccc4sccc34)CC2)CC1` [Example 1110]: in data set [1], the “Serotonin uptake inhibitory ratio (%) (300 nM)” value came to 38.5%. Further, the pKi is 8.92 at Dopamine D2 receptor and 8.31 in data set [2].
For `CN(C)C(=O)c1csc(OCCCN2CCN(c3cccc4sccc34)CC2)n1` [Example 1113] the same measures were 59.3%, 9.15 and 8.30.
On to `CN(C)c1cc(OCCCCN2CCN(c3cccc4sccc34)CC2)n(C)n1` [Example 1138], for which the “Serotonin uptake inhibitory ratio (%) (300 nM)” value in data set [1] came out at 67.2%. The pKi was 8.85 on Dopamine D2 receptor and 7.71 in data set [2].
On to `NCCc1ccc(O)c(O)c1` [dopamine], for which, in data set [3], the “quantity of cyclic AMP suppressed to, as the maximum activity” value is reported as “about 10%”.
